Measurements from ChEMBL document CHEMBL6087427, “Discovery of novel cyclopentane carboxylic acids as potent and selective inhibitors of NaV1.7” (Bioorg Med Chem Lett, 2025).

How the values were obtained:
[1] = target: T1, Sodium channel protein type 9 subunit alpha (Homo sapiens, UniProt Q15858); assay: Displacement of [3H]GX-545 from Nav1.7 VSD4 (unknown origin)
Target sequence in this assay (Q15858 whole entry): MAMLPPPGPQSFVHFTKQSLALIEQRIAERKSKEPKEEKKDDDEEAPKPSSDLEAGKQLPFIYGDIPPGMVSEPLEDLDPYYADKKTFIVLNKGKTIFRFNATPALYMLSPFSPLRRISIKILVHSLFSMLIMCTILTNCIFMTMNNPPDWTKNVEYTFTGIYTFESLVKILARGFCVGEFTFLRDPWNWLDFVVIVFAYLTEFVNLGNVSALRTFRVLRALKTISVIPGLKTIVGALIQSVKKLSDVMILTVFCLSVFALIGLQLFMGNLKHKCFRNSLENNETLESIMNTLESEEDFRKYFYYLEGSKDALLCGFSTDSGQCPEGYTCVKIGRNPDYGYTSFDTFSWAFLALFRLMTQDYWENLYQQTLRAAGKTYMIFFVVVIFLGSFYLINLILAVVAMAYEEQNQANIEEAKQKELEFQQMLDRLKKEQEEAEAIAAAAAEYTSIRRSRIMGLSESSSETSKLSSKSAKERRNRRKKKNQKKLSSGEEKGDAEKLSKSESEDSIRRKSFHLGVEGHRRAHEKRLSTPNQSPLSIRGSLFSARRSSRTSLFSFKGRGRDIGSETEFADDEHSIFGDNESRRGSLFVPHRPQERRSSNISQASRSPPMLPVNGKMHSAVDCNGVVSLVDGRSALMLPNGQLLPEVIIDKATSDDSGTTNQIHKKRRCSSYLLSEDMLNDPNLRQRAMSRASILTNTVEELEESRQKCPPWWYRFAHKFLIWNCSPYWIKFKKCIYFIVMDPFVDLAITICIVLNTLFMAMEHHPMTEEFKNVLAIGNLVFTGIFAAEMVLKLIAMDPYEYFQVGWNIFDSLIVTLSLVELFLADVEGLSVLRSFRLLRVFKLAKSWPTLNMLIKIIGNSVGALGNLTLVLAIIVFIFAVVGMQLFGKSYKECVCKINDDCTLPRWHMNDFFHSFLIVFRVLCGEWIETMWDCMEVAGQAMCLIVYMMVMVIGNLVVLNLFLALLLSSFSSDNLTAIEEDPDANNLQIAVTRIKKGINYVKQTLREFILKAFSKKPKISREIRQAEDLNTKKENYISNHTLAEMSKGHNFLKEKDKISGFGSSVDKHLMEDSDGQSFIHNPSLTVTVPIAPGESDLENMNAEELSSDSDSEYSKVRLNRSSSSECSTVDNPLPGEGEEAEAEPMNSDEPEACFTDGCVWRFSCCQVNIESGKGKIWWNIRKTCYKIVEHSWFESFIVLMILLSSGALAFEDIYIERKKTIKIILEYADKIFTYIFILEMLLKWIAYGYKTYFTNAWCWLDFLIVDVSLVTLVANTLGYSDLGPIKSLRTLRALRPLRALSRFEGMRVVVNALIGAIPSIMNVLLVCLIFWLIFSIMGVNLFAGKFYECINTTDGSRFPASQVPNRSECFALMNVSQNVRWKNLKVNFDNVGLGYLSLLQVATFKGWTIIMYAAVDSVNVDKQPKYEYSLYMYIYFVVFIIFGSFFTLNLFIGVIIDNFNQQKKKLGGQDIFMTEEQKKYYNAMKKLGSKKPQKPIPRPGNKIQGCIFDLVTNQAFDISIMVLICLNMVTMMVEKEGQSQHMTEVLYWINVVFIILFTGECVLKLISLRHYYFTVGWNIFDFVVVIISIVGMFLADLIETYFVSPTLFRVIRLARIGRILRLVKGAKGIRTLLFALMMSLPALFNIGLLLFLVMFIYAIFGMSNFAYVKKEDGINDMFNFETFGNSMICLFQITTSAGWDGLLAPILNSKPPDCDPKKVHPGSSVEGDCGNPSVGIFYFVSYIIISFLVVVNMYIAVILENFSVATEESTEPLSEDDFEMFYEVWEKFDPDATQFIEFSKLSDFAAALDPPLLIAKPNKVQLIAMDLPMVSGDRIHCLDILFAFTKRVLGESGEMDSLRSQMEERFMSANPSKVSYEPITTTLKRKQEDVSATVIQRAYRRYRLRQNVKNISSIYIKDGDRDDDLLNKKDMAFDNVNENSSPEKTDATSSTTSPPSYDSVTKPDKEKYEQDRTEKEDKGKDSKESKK

[2] = target: T1, Sodium channel protein type 9 subunit alpha; assay: Inhibition of human Nav1.7 by patch clamp electrophysiology
Target sequence in this assay (Q15858 whole entry): as above

[3] = target: Sodium channel protein type 5 subunit alpha (Homo sapiens, UniProt Q14524); assay: Inhibition of human Nav1.5 by patch clamp electrophysiology
Sodium channel protein type 5 subunit alpha, sequence (Q14524 whole entry): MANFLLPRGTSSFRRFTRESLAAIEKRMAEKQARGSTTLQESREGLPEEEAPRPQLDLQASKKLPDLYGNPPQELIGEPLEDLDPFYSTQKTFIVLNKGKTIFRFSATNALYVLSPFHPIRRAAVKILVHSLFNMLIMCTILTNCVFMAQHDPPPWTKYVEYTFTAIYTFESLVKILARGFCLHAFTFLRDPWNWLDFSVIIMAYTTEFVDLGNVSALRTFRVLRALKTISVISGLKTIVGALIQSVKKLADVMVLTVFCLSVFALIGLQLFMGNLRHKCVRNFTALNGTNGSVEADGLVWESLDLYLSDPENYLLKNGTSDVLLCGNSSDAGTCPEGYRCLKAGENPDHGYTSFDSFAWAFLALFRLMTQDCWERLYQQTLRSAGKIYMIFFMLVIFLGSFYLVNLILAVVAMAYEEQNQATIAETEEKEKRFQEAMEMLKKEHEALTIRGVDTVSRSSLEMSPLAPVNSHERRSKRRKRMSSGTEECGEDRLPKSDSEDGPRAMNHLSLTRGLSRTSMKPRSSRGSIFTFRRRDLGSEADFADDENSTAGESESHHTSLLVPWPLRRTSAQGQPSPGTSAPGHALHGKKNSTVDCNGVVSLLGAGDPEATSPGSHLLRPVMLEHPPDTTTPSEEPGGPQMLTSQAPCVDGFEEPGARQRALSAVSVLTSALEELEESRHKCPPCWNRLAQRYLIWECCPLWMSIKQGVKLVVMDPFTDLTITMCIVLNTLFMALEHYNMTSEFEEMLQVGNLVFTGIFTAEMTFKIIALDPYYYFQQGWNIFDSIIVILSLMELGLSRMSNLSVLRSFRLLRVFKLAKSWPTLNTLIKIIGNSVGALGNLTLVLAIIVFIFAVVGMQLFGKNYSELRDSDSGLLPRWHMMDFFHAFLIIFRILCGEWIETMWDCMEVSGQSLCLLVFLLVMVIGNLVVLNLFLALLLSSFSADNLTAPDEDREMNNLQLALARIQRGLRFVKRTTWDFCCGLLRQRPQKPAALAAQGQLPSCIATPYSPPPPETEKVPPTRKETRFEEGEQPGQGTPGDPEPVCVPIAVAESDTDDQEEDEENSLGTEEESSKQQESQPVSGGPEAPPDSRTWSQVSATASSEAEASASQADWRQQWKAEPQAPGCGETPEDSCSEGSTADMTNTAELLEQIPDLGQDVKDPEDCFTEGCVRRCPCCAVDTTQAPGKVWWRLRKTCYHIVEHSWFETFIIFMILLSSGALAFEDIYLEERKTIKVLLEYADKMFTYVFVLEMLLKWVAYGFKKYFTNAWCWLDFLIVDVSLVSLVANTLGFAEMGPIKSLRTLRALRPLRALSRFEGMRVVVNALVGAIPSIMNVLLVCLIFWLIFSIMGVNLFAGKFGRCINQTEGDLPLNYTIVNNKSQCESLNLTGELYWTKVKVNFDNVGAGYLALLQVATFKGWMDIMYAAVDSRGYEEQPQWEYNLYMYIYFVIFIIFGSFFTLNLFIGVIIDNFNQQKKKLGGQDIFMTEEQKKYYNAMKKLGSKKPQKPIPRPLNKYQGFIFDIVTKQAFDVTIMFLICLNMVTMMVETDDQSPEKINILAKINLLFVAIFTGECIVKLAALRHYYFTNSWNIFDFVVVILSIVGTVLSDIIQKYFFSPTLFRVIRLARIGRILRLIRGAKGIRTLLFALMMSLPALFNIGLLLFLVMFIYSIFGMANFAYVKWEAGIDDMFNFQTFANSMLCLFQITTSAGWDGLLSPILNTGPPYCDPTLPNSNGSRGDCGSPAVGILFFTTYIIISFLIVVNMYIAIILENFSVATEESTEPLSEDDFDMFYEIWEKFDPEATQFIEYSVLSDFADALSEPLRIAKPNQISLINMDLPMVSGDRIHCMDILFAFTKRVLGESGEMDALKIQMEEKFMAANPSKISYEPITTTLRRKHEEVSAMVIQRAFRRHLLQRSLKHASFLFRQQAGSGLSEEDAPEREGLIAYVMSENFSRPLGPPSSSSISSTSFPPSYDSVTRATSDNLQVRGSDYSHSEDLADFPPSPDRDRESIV

[4] = target: T1, Sodium channel protein type 9 subunit alpha; assay: Inhibition of human Nav1.7 by sodium flux assay
Target sequence in this assay (Q15858 whole entry): as the sequence (Q15858 whole entry) above

[5] = target: T1, Sodium channel protein type 9 subunit alpha; assay: Inhibition of human Nav1.7 assessed as fold shift in IC50 in presence of BSA by sodium flux assay
Target sequence in this assay (Q15858 whole entry, looked up): as the sequence (Q15858 whole entry) above

[6] = Metabolic stability in human liver microsomes assessed as hepatic clearance; assay type: ADME, Microsome
[7] = Metabolic stability in mouse liver microsomes assessed as hepatic clearance; assay type: ADME, Microsome
[8] = AUC in mouse at 3 mg/kg, po; assay type: ADME, organism-based; settings: in vivo, read-out: AUC

`C[C@H]1[C@H](O)CN(C(=O)c2cc(C3CC3)c(OCC34CC5CC(CC(C5)C3)C4)cc2F)[C@@H]1C(=O)O` showed a Ki [1] of 21 nM.

Work on `C[C@@H]1[C@H](F)CN(C(=O)c2cc(C3CC3)c(OCC34CC5CC(CC(C5)C3)C4)cc2F)[C@@H]1C(=O)O` yielded a Ki [1] of 220 nM.

Compound `O=C(O)[C@@H]1[C@H](F)CCN1C(=O)c1cc(C2CC2)c(OCC23CC4CC(CC(C4)C2)C3)cc1F` has a Ki [1] of 170 nM.

`O=C(c1cc(C2CC2)c(OCC23CC4CC(CC(C4)C2)C3)cc1F)C1CCC[C@H]1C(=O)O` (some centres not stated) gave a Ki [1] of 8.6 nM, an IC50 [2] of 12 nM and an IC50 [3] of 2600 nM. For the same compound, the IC50 [4] was 250 nM, the fold change (FC) [5] was 1.5 and the CLhep predicted [6] was 17 mL/min/kg. It also gave a CLhep predicted [7] of 61 mL/min/kg and an AUC [8] of 0.53 µM·h.

In the case of `O=C(O)[C@@H]1[C@@H](F)CCN1C(=O)c1cc(C2CC2)c(OCC23CC4CC(CC(C4)C2)C3)cc1F`, the Ki [1] is reported as 60 nM.

`O=C(O)[C@@H]1C[C@H](F)CN1C(=O)c1cc(C2CC2)c(OCC23CC4CC(CC(C4)C2)C3)cc1F` gave a Ki [1] of 560 nM.

`C[C@H]1CCN(C(=O)c2cc(C3CC3)c(OCC34CC5CC(CC(C5)C3)C4)cc2F)[C@@H]1C(=O)O` showed a Ki [1] of 10 nM.

For `C[C@@H]1C[C@@H](C(=O)O)N(C(=O)c2cc(C3CC3)c(OCC34CC5CC(CC(C5)C3)C4)cc2F)C1`, the Ki [1] was 85 nM.

Compound `C[C@@]1(C(=O)O)CCCN1C(=O)c1cc(C2CC2)c(OCC23CC4CC(CC(C4)C2)C3)cc1F` has a Ki [1] of 100 nM.

`N#C[C@H]1C[C@@H](C(=O)O)N(C(=O)c2cc(C3CC3)c(OCC34CC5CC(CC(C5)C3)C4)cc2F)C1` showed a Ki [1] of 870 nM.

Work on `C[C@@H]1[C@@H](C(=O)O)[C@H](C(=O)c2cc(C3CC3)c(OCC34CC5CC(CC(C5)C3)C4)cc2F)C[C@@H]1F` yielded a Ki [1] of 1.8 nM, an IC50 [2] of 10 nM and an IC50 [3] of 6000 nM. It also gave an IC50 [4] of 160 nM, a fold change (FC) [5] of 1 and a CLhep predicted [6] of 11 mL/min/kg. For the same compound, the CLhep predicted [7] was 53 mL/min/kg and the AUC [8] was 0.24 µM·h.

Work on `C[C@@H]1[C@@H](C(=O)O)N(C(=O)c2cc(C3CC3)c(OCC34CC5CC(CC(C5)C3)C4)cc2F)C[C@@H]1F` yielded a Ki [1] of 6.4 nM, an IC50 [2] of 10 nM and an IC50 [3] of 5800 nM. For the same compound, the fold change (FC) [5] was 1, the CLhep predicted [6] was 13 mL/min/kg and the CLhep predicted [7] was 64 mL/min/kg. It also gave an AUC [8] of 0.16 µM·h.
